Experimental data published in PMC10766943, “Synthesis, characterization, Hirshfeld surface analysis, antioxidant and selective β-glucuronidase inhibitory studies of transition metal complexes of hydrazide based Schiff base ligand” (Scientific Reports, 2024).

How the values were obtained:
DPPH radical scavenging [1] = conditions: for IC50: DPPH scavenging
Description: The synthetic Schiff base ligand and its metal complexes were tested for their ability to scavenge DPPH radicals using the methodology described by Soare, Dinis, Cunha, and Almeida in 1997[64]. Initially, 1 mL of 0.2 mM DPPH dissolved in methanol was combined with 0.1 mL of each sample at 250, 500, 750, and 1000 µg/mL concentrations. For 20 min, the reaction mixture was kept at 28 °C and kept in the dark. Methanol served as the control, which had all the components but no sample. A UV/Vis spectrophotometer was used to detect the absorbance at 517 nm in order to assess the DPPH radical scavenging activity. For comparison, the DPPH radical scavenging capacity of ascorbic acid was also determined. %Inhibitioneffect=Ac-As/Ac×100
Ac = Absorbance by the control, As = Absorbance by the sample[37].

DPPH radical scavenging [2] = conditions: Conc. 0.05 mM
β-glucuronidase enzyme = target: T1, β-glucuronidase enzyme (Bos taurus, UniProt A3KMY8); experiment: β-Glucuronidase inhibitory activity (p-nitrophenyl-β-D-glucuronide, 405 nm); format: biochemical; conditions: Conc. 0.05 mM
T1 sequence (A3KMY8 24-652): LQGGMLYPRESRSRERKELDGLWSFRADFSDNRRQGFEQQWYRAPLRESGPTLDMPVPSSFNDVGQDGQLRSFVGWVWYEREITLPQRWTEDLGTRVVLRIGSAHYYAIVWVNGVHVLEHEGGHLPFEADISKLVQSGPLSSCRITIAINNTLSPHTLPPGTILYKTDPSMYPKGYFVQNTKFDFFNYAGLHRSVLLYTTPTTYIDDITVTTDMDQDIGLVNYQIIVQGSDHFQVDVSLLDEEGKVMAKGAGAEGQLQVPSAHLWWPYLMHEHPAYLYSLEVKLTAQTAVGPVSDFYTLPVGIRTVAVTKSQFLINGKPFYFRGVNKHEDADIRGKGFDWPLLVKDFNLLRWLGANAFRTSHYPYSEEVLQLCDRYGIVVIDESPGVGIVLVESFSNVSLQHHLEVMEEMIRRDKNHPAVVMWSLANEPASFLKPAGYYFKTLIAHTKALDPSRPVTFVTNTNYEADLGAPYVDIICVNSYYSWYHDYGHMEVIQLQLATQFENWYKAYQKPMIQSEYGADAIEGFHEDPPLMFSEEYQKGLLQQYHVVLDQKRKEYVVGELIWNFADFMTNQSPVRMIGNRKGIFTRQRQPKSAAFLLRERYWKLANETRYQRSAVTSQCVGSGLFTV
Description: β-Glucuronidase inhibitory activity by hydrazide Schiff base ligand (H-AHMB) and its metal (II) complexes was investigated using standard procedure. […] According to the procedure 185 µL of 0.1 M acetate buffer, 5 µL compound to be tested and 10 µL of enzyme solution were mixed and incubated at 37 °C for 30 min. SpectraMax plus 384, Molecular Devices, USA was used to read on a multiplate reader at 405 nm after the addition of 0.4 mM p-nitrophenyl-β-D-glucuronide (50 µL). All experiments were performed in triplicate.

β-glucuronidase = conditions: cited from earlier work

Compound | antioxidant potential against DPPH free radicals (in words) (DPPH radical scavenging [1]) | % Radical scavenging activity (DPPH radical scavenging [2]) [%] | % inhibition (β-glucuronidase enzyme) [%] | IC50 (DPPH radical scavenging [1]) [µM] | inhibition of the β-glucuronidase enzyme (β-glucuronidase)
COc1cc(C=NNC(=O)c2ccccc2N)ccc1O [H-AHMB, N′-[(4-hydroxy-3-methoxyphenyl)methylidene] 2-aminobenzohydrazide] | inactive | 22.97 |  |  | 
Copper adduct with N′-[(4-hydroxy-3-methoxyphenyl)methylidene] 2-aminobenzohydrazide [Cu-AHMB] |  | 84.29 | 73.3 | 183 ± 6.6 | 
Cobalt adduct with N′-[(4-hydroxy-3-methoxyphenyl)methylidene] 2-aminobenzohydrazide [Co-AHMB] |  | 88.46 | 78.8 | 98.2 ± 1.78 | 
O=C1OC(C(O)C(=O)O)C(O)C1O [D-saccharic acid-1,4-lactone, reference compound] |  |  | 89.4 |  | 
O=C(O)c1cc(O)c(O)c(O)c1 [Gallic acid, reference compound] |  | 93.13 |  | 63 ± 0.43 | 
O=C[C@H](O)[C@H]1OC(=O)[C@@H](O)[C@H]1O [D-glucurono-γ-lactone] |  |  |  |  | marked inhibition
Nickel adduct with N′-[(4-hydroxy-3-methoxyphenyl)methylidene] 2-aminobenzohydrazide [Ni-AHMB] |  | 52.40 | 96.0 | 467 ± 2.9 | 
CC(=O)O[C@@H]1C(=O)O[C@H]2[C@@H]1OC(=O)[C@@H]2OC(C)=O [2,5-di-O-acetyl-D-glucaro-1,4:6,3-Dilactone] |  |  |  |  | marked inhibition
Zinc adduct with N′-[(4-hydroxy-3-methoxyphenyl)methylidene] 2-aminobenzohydrazide [Zn-AHMB] |  | 49.16 | 98.3 |  | 
